{
  "source": "the NIST ThermoML archive (doi:10.1021/je049789+)",
  "details": "Liquid, Closed cell (Static) method",
  "note": "± gives the expanded uncertainty stated by the source.",
  "data": [
    {"smiles": "COC", "note": "[dimethyl ether]", "values": [
      {"measurement": "vapor or sublimation pressure", "setting": "258.15 K", "value": "152.9 ± 2.1", "unit": "kPa"},
      {"measurement": "vapor or sublimation pressure", "setting": "273.15 K", "value": "266.8 ± 2.2", "unit": "kPa"},
      {"measurement": "vapor or sublimation pressure", "setting": "293.15 K", "value": "509.3 ± 2.7", "unit": "kPa"}
    ]},
    {"smiles": "FCF", "note": "[difluoromethane]", "values": [
      {"measurement": "vapor or sublimation pressure", "setting": "258.15 K", "value": "488.1 ± 2.6", "unit": "kPa"},
      {"measurement": "vapor or sublimation pressure", "setting": "273.15 K", "value": "814 ± 3.3", "unit": "kPa"},
      {"measurement": "vapor or sublimation pressure", "setting": "293.15 K", "value": "1474.6 ± 4.8", "unit": "kPa"}
    ]}
  ]
}
